According to US20040082585A1, “Prodrugs of substituted polycyclic compounds useful for selective inhibition of the coagulation cascade” (Pharmacia Corporation, priority 2001, published 2004):

Tests used:
[1] = Metabolic stability assay, hepatic S9 fraction incubation (rat); assay type: in vitro ADME; details: rat liver S9 fraction 2.0 mg/mL protein, 1.0 μM substrate, 1.0 mM NADPH, 37° C., 30 minutes
Procedure: (§1) In order to determine the metabolic stability of each of the tested compounds, the following assay conditions were used: 100 mM-phosphate buffer, 1.0 mM NADPH, 3.3 mM magnesium chloride, 2.0 mg/mL protein from Hepatic S9 Fraction and 1.0 μM of substrate.
(§2) The assay was performed on a 96-well conical shaped plate with a volume of 200 μL, after addition of methanol. For each species, a set of samples was prepared as shown below (volumes are in μL).
(§3) The plate was sealed and incubated in a Thermal Mixer at 37° C. for 30 minutes at 400 rpm. 100 μL of methanol was added to each well and the plate was mixed for several minutes and then covered with an aluminum seal. Finally, the plate was centrifuged at 1000 rpm for 10 minutes.
(§4) The assay was analyzed using liquid chromatography and positive ion electrospray mass spectrometry. The chromatography column used was Agilent Zorbax SB-C18 (3.0×150 mm, 5 μm) with a flow rate of 0.5 mL/min.
(§5) Calculations were performed to determine the percent remaining, which is calculated by dividing the Peak Area Ratio of the analyte measured in the active protein versus the Peak Area Ratio of the analyte measured in the inactivated protein sample. The Peak Area Ratio is defined as the peak area of the analyte divided by the peak area of the internal standard. Analyte is defined as the substrate of a specific measurable metabolite.

[2] = Metabolic stability assay, hepatic S9 fraction incubation (human); assay type: in vitro ADME; details: human liver S9 fraction 2.0 mg/mL protein, 1.0 μM substrate, 1.0 mM NADPH, 37° C., 30 minutes
Procedure: as §1, §2, §3, §4, §5

[3] = Bioavailability and prodrug conversion in male rats; assay type: in vivo; details: Crl:CD(SD)BR, rat, blood, fasted, oral 10 mg free base of active moiety per kg, IV 1 mg free base/kg, LC-MS/MS, read-out: BA (bioavailability of prodrug after oral adminstration)
Procedure: Healthy male rats [Crl:CD(SD)BR] were obtained from Charles River Breeding Laboratory (Canada). […] The animals weighed 250 to 320 g and were individually identified by labeling on each metabolism cage. The rats were housed in individual metabolism cages during dosing and sample collections. The animals were acclimated to a diet of Purina Rodent Chow #5002 (Ralston Purina, St. Louis, Mo.) for at least 5 days and were fasted for 15-20 hours prior to the administration of the compound. Food was available from 4 hours after dose administration and ad libitum throughout the remainder of the study.
Each animal received the prodrug orally at an equivalent dose of 10 mg of free base of active moiety per kg of body weight or active moiety orally at an equivalent dose of 10 mg equivalent free base per kg body weight. For intravenous (IV) study, the animals received 1 mg free base/kg body weight. Sufficient amount of the test article was dissolved in appropriate vehicle (See table below) such that the final concentration of dose solution was 2.0 mg free base/mL and 0.5 mg free base/mL for oral and IV doses, respectively. The dose volume was 5 mL/kg and 2 mL/kg for oral and IV doses, respectively
Blood samples were collected from the jugular vein at specified time intervals. Concentrations of test article and/or prodrug were analyzed using a LC-MS/MS procedure.
Model independent pharmacokinetic parameters (Cmax, Tmax, AUC, T1/2, CL, Vss) were obtained using Watson computer program. The bioavailability (BA) was calculated as follows: [formula]
The percentages of conversion of prodrug to active moiety was calculated using the following equation: [formula]
“AUC” represents area under the curve.

Structure (SMILES)	S9 Rat (percent remaining) [1]	S9 Hum. (percent remaining) [2]	bioavailability [3]
CCCCOC(=O)O/N=C(\N)c1ccc(CNC(=O)Cn2c(-c3cc(N)cc(C(F)(F)F)c3)cnc(NC(C)C)c2=O)cc1 [Compound 11]	44%	40%	–
CCOC(=O)O/N=C(\N)c1ccc(CNC(=O)Cn2c(-c3cc(N)cc(C(F)(F)F)c3)cnc(NC(C)C)c2=O)cc1 [Compound 7]	54%	5%	–
CC(C)Nc1ncc(-c2cc(N)cc(NC(=O)C(C)C)c2)n(CC(=O)NCc2ccc(C(=N)NO)cc2)c1=O [Compound 18]	36%	5%	–
COC(=O)c1cc(N)cc(-c2cnc(NC(C)C)c(=O)n2CC(=O)NCc2ccc(C(=N)NO)cc2)c1 [Compound 12]	–	–	3%
CC(C)COC(=O)O/N=C(\N)c1ccc(CNC(=O)Cn2c(-c3cc(N)cc(C(F)(F)F)c3)cnc(NC(C)C)c2=O)cc1 [Compound 16]	0%	0%	–
CC(C)Nc1ncc(-c2cc(N)cc(C(F)(F)F)c2)n(CC(=O)NCc2ccc(/C(N)=N/OC(=O)OC(C)C)cc2)c1=O [Compound 20]	–	–	2%
CC(C)Nc1ncc(-c2cc(N)cc(C(F)(F)F)c2)n(CC(=O)NCc2ccc(C3=NOC(C)(c4ccccc4)N3)cc2)c1=O (stereo not shown) [Compound 25]	13%	3%	–
CC(C)Nc1ncc(-c2cc(N)cc(C(F)(F)F)c2)n(CC(=O)NCc2ccc(C(=N)NOCc3ccccc3)cc2)c1=O [Compound 29]	14%	17%	–
COc1ccc(OC(=O)O/N=C(\N)c2ccc(CNC(=O)Cn3c(-c4cc(N)cc(C(F)(F)F)c4)cnc(NC(C)C)c3=O)cc2)cc1 [Compound 24]	1%	1%	–

More lines, now with the values ahead:

S9 Rat (percent remaining) [1]	S9 Hum. (percent remaining) [2]	bioavailability [3]	Structure (SMILES)
25%	39%	4%	CC(C)Nc1ncc(-c2cc(N)cc(C(F)(F)F)c2)n(CC(=O)NCCc2c(F)c(F)c3c(N)noc3c2F)c1=O [Compound 15]
–	–	7%	CC(C)Nc1ncc(-c2cc(N)cc(C(F)(F)F)c2)n(CC(=O)NCc2ccc3c(N)noc3c2)c1=O [Compound 6]
3%	1%	20%	CCONC(=N)c1ccc(CNC(=O)Cn2c(-c3cc(N)cc(C(F)(F)F)c3)cnc(NC(C)C)c2=O)cc1 [Compound 8]
1%	1%	1%	CCNC(=O)O/N=C(\N)c1ccc(CNC(=O)Cn2c(-c3cc(N)cc(C(F)(F)F)c3)cnc(NC(C)C)c2=O)cc1 [Compound 14]
11%	2%	–	CC(C)Nc1ncc(-c2cc(N)cc(C(F)(F)F)c2)n(CC(=O)NCc2ccc(C(=N)NO)cc2)c1=O [Compound 1]
0%	0%	1%	CC(C)Nc1ncc(-c2cc(N)cc(C(F)(F)F)c2)n(CC(=O)NCc2ccc3c(N)nc(=O)oc3c2)c1=O [Compound 9]
13%	0.50%	5%	CC(C)Nc1ncc(-c2cc(N)cc(C(F)(F)F)c2)n(CC(=O)NCc2ccc(C3=NC(C)(C)ON3)cc2)c1=O [Compound 5]
0%	0%	17%	CONC(=N)c1ccc(CNC(=O)Cn2c(-c3cc(N)cc(C(F)(F)F)c3)cnc(NC(C)C)c2=O)cc1 [Compound 4]
